Source: US12612424B2, “HPK1 inhibitors and uses thereof” (Regor Pharmaceuticals, Inc., priority 2019, dated 2026)

Test system: Human Pan T Cell (IL-2 release)
Assay: IL2 released by human pan T cell upon anti-CD3/anti-CD28 stimulation (ELISA)
Assay type: cell-based
Details: human pan T cells; for maximal fold induction: response of IL-2 over DMSO control, anti-CD3/anti-CD28, 48 hours, ELISA, read-out: IL-2 Max Fold Response; for EC50: IL-2 response, calculated with GraphPad Prism
Outline: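 Primary human pan-T cells, negatively isolated from PBMC, plated at 100,000 cells/well and stimulated with immobilized anti-CD3 plus soluble anti-CD28 in presence of test compound at varying concentrations. After 2 days, secreted IL-2 in supernatant quantified by ELISA.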

Row | EC50 (Homo sapiens, T-cell) | Structure (SMILES) | EC (2-fold response) (Homo sapiens, T-cell, 48 h, concentration of compound that gives 200% IL-2 response (2 folds) over DMSO control) | maximal fold induction (Homo sapiens, T-cell, 48 h) | EC2x (nM) (concentration of compound that gives 200% IL-2 response (2 folds) over DMSO control)
1 | 0.5 to 1 µM | COc1cc2c(cc1Nc1ncc(Cl)c(N3CC(C(=O)O)C4(CCCCC4)C3)n1)CN(C)CC2 (stereo not drawn) [Example 167, 2-(5-Chloro-2-((6-methoxy-2-methyl-1,2,3,4-tetrahydroisoquinolin-7-yl)amino)pyrimidin-4-yl)-2-azaspiro[4.5]decane-4-carboxylic acid] | 0.1 to 0.5 µM | > 2 | 
2 | > 1 µM | COc1cc2c(cc1Nc1ncc(Cl)c(N3CC(C(=O)O)C4(CCCC4)C3)n1)CN(C)CC2 (stereo not drawn) [Example 169, 2-(5-Chloro-2-((6-methoxy-2-methyl-1,2,3,4-tetrahydroisoquinolin-7-yl)amino)pyrimidin-4-yl)-2-azaspiro[4.4]nonane-4-carboxylic acid] |  | > 2 | ++ (“++”, for higher values than “+++” but less than or equal to 1 μM)
